Data set [1] addresses T1, human MCHR1 (Homo sapiens, UniProt Q99705).
T1 construct: expressed in transfected cells; host or cells: CHO cell clone 57 (membrane fraction)
Put plainly: MCH receptor 1 antagonistic activity, Ca2+ mobilization assay in human MCHR1-expressing CHO cells. Format: cell-based. Conditions: test compound 0.1 μM; human MCHR1-expressing CHO cell; ligand MCH (4-19) peptide 20 nM; Fluo4 fluorescence; read-out: Inhibition rate (%). The procedure:
Measurement of MCH Receptor 1 Antagonistic Activity of Test Compound Using Ca^2+ Mobilization Assay
CHO cell (CHO dhfr^−, clone #4) expressing a recombinant human MCHR1 gene for Ca^2+ mobilization assay was prepared by us. The cell was cultured in MEMα medium [445 mL of MEMα medium without nucleic acid and added with 5 mL of Penicillin-Streptomycin (Invitrogen) and 50 mL of dialyzed fetal bovine serum]. An integrated dispensing function fluorometer (CellLux, PerkinElmer) was used for Ca^2+ mobilization assay. CHO cells were sown in a 96 well plate (type 3904, Corning) with a black plate wall and clear well bottom at a density of 20000 cells/well, and cultured in an incubator for about 24 hr at 5% CO2, 37° C. The medium was removed, and the cells were washed with phosphate buffered saline (PBS). A Ca^2+ indicator dye reagent (DOJINDO LABORATORIES, Ca screening no-wash kit Fluo4) was added at 90 μL/well, and the dye was allowed to penetrate into the cell for 30 min in an incubator at 5% CO2, 37° C. The plate was set on a plate reader, a test compound solution diluted with an assay buffer [10 mM HEPES (pH 7.4), 1× assay buffer containing 0.1% BSA (DOJINDO LABORATORIES, attached to Ca screening no-wash kit Fluo4)] or DMSO solution was added at 10 μL/well, and ligand MCH (4-19) peptide (final concentration 20 nM) diluted with assay buffer or DMSO was added at 50 μL/well, during which changes in intracellular fluorescence were measured at 2 second intervals. The antagonistic activity of the test compound was calculated and shown as an inhibition rate (%) wherein the intracellular fluorescence activity resulting from the stimulation by the addition of ligand MCH (4-19) peptide was 100% and that of the well added with DMSO solution alone was 0%.
Background: Calcium flux is commonly read through the fluorescence of an indicator in the cells.

In data set [2] the target is T1, human MCHR1. Briefly: Human MCH receptor 1 (MCHR1) competitive binding assay, [125I]-MCH(4-19), CHO cell membrane fraction. Conditions: test compound 0.1 μM, human MCHR1-expressing CHO cell membrane, 25° C., 1 hr, read-out: Binding inhibition rate (0.1 μM). The procedure:
Determination of Human MCH Receptor 1 (MCHR1) Competitive Inhibitory Activity of Test Compound Using Binding Assay
Using human MCHR1(=SLC-1 receptor)-expressing CHO cell clone 57 and rat MCHR1-expressing CHO cell clone 44 described in WO01/82925, MCHR1-expressing CHO cellular membrane fractions were prepared by the following method. In phosphate buffered saline (pH 7.4) supplemented with 5 mM EDTA (ethylenediaminetetraacetic acid) were respectively suspended human and rat MCHR1-expressing CHO cells (1×10^8 cells) and centrifuged. Homogenate buffer (10 mL, 10 mM NaHCO3, 5 mM EDTA, pH 7.5, 0.5 mM PMSF (phenylmethylsulfonyl fluoride), 20 mg/L leupeptin, 4 mg/L E-64, 1 mg/L pepstatin A) was added to the pellets of the cells and, using Polytron Homogenizer, the mixture was homogenated. The supernatant obtained after centrifugation at 400×g for 10 min was further centrifuged at 100,000×g for 1 hr to give precipitate of the membrane fraction. The precipitate were suspended in 2 mL of assay buffer [20 mM Tris-HCl (pH 7.5), 5 mM EDTA, 0.5 mM PMSF, 20 mg/L leupeptin, 4 mg/L E-64, 1 mg/L pepstatin A]. The membrane fractions were suspended in assay buffer to a protein concentration of 2 mg/mL, and after dispensing, preserved at −80° C. and used upon thawing each time when in use.
The MCHR1 ligand binding inhibitory activity of the test compound was determined as follows. An MCHR1-expressing CHO cellular membrane fraction (175 μL) diluted with an assay buffer was dispensed to a 96 well polypropylene plate (3363, Corning). DMSO solution (2 μL), 100 μm cold MCH(1-19) diluted with DMSO solution (2 μL), or a test compound solution diluted with DMSO solution to various concentrations (2 μL) was added, and lastly, [^125I]-MCH(4-19) diluted with assay buffer (25 μL) was added to each well. The reaction mixture was reacted at 25° C. for 1 hr with stirring, and the reaction mixture was filtered by suction using a glass filter plate (GF/C, PerkinElmer). The filter was washed 3 times with a wash solution (300 μL, 50 mM Tris-HCl buffer, pH 7.5). The glass filter plate was dried, a liquid scintillator was added at 25 μL/well, and the residual radioactivity was measured by TopCount (PerkinElmer). The binding inhibition rate of the test compound was calculated by the following formula. Binding inhibition (%)=(radioactivity upon addition of test compound and hot MCH−radioactivity upon addition of cold MCH and hot MCH solution)/(radioactivity upon addition of DMSO solution and hot MCH−radioactivity upon addition of cold MCH and hot MCH solution)×100

Data set [3] has as its system Dietary obese male F344/Jcl rats. Put plainly: Anorectic effect (food intake) in dietary obese male F344/Jcl rats. Conditions: Rattus norvegicus, 48 h; oral, 0.5% methylcellulose suspension (5 mg/mL) at 2 mL/kg, on start day and evening of next day; food intake from initial administration to 2 days later; vs control group; read-out: Food intake inhibition rate (%). Format: in vivo. An excerpt: Evaluation of Anorectic Effect Using Dietary Obese Male F344/Jcl Rats
Dietary obese male F344/Jcl rats (42-57-week-old) reared on a high-fat diet (Research Diets: D12451) from 5 weeks of age were used. From before the start of experiment, the rats were independently raised, a powder high-fat diet (Research Diets: D12451M) was given, tap water was orally administered for acclimation, and thereby the rats were habituated. The food intake from the evening of the day before the start of experiment to the next morning was measured, and the rats were grouped based on the food intake and the body weight of the previous day as indices. On the day of the start of experiment and in the evening of the next day, 0.5% methylcellulose solution was orally administered to the control group, and 0.5% methylcellulose suspension (5 mg/mL) of the test compound was orally administered to the compound administration group at 2 mL/kg (6 per group for both control group and compound administration group). The food intake from the initial administration to 2 days later was measured. The food intake inhibition rate of each compound administration group to the control group was calculated.

T1 sequence (Q99705 whole entry): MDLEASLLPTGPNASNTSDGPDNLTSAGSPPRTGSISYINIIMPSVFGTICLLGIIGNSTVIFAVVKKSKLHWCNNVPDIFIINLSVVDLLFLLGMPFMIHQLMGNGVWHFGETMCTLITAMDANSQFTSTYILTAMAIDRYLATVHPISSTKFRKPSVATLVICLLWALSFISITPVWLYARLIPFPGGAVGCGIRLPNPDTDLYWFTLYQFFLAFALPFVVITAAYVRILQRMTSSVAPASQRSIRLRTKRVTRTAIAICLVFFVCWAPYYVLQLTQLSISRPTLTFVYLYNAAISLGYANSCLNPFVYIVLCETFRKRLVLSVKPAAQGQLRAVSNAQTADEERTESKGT

A word on the inhibition: it is the drop in the measured response relative to a control, in per cent. As usually defined, the melting point is the temperature, or range, at which the solid turns liquid. `Cc1c(NC(=O)c2ccc(OCC3CC3)cc2)ccc2c1cc(CNCC(C)(C)O)n2C` [Example 50, 4-(cyclopropylmethoxy)-N-(2-{[(2-hydroxy-2-methylpropyl)amino]methyl}-1,4-dimethyl-1H-indol-5-yl)benzamide] came in with a melting point of 175 to 176 °C. Also, the inhibition at 0.1 µM on human MCHR1 [1] stood at 97%. Further, the inhibition at 0.1 µM at human MCHR1 [2] amounted to 97%. In addition, the inhibition in vivo at 10 mg/kg in data set [3] was found to be 26.5%.

`Cc1c(NC(=O)c2ccc(OC[C@@H]3CCCO3)cc2F)ccc2c1cc(CNCC(C)(C)O)n2C` [Example 60, 2-fluoro-N-(2-{[(2-hydroxy-2-methylpropyl)amino]methyl}-1,4-dimethyl-1H-indol-5-yl)-4-[(2S)-tetrahydrofuran-2-ylmethoxy]benzamide] gave a melting point of 118 °C. Besides, at human MCHR1 [1], the inhibition at 0.1 µM was found to be 97%. Besides, at human MCHR1 [2], the inhibition at 0.1 µM was 98%. The inhibition in vivo at 10 mg/kg in data set [3] stood at 19.9%.

Turning to `Cc1c(NC(=O)c2ccc(OC[C@@H]3CCCO3)cc2)ccc2c1cc(CNCC1CCOCC1)n2C` [Example 55, N-(1,4-dimethyl-2-{[(tetrahydro-2H-pyran-4-ylmethyl)amino]methyl}-1H-indol-5-yl)-4-[(2S)-tetrahydrofuran-2-ylmethoxy]benzamide], the melting point was 166 to 167 °C. Besides, the inhibition at 0.1 µM at human MCHR1 [1] amounted to 99%. Moreover, on human MCHR1 [2], the inhibition at 0.1 µM is 98%. Besides, the inhibition in vivo at 10 mg/kg in data set [3] worked out at 22.7%.

Take `Cc1c(NC(=O)c2ccc(OC[C@@H]3CCCO3)cc2F)ccc2cc(CN[C@H]3CC[C@](C)(O)CC3)n(C)c12` [Example 88, 2-fluoro-N-(2-{[(trans-4-hydroxy-4-methylcyclohexyl)amino]methyl}-1,7-dimethyl-1H-indol-6-yl)-4-[(2S)-tetrahydrofuran-2-ylmethoxy]benzamide]: the melting point is 131 to 132 °C. Further, on human MCHR1 [1], the inhibition at 0.1 µM came out at 98%. Further, the inhibition at 0.1 µM at human MCHR1 [2] came to 95%. In addition, the inhibition in vivo at 10 mg/kg in data set [3] stood at 17.5%.

`Cn1c(CNCC2CCOCC2)cc2cc(NC(=O)c3ccc(OC[C@@H]4CCCO4)cc3)ccc21` [Example 17, N-(1-methyl-2-{[(tetrahydro-2H-pyran-4-ylmethyl)amino]methyl}-1H-indol-5-yl)-4-[(2S)-tetrahydrofuran-2-ylmethoxy]benzamide] registered a melting point of 157 to 158 °C. Besides, the inhibition at 0.1 µM on human MCHR1 [1] was determined as 97%. Moreover, the inhibition at 0.1 µM at human MCHR1 [2] turned out to be 97%. Moreover, in data set [3], the inhibition in vivo at 10 mg/kg was 14.7%.

The values above are taken from patent US8642770B2, “Indole derivative” (Takeda Pharmaceutical Company Limited, priority 2010, dated 2014).
